According to patent US20020048572A1, “Treatment of hypertriglyceridemia and other conditions using LXR modulators” (priority 2000, published 2002):

Experiments:
Format in all cases: in vivo, mouse
HepG2 cells and mice = assay: Gene expression microarrays (GEM) of LXR agonist-treated HepG2 cells and mice; details: fold increase vs control; mice 5 mg/kg p.o. 7 d
Experimental: Total RNA extraction and purification for Northern blot analysis was accomplished using the TRI reagent (Molecular Research Center).
To understand the mechanism whereby LXR agonist increased plasma triglycerides, changes in global gene expression in response to LXR agonist treatment were assessed by gene expression micrarrays (GEM) and Northern blot analysis. The GEM experiments were carried out using RNA derived from control and LXR agonist-treated HepG2 cells and mice. […] In addition, a prominent subset of >20 fatty acid metabolism-associated genes was increased by LXR agonist. This subset included fatty acid synthase, carnitine palmitoyltransferase 1, acyl-CoA-binding protein, acyl glycerol-3 phosphate acyltransferase, fatty acid amide hydrolase, acyl carrier protein, fatty acid binding and transport proteins, and colipase, a small protein cofactor required by lipase for the efficient hydrolysis of dietary lipid. Up-regulation of liver and intestinal phosphoethanolamine cytidylyltransferase, a key regulatory enzyme in the CDP-ethanolamine pathway for phosphatidylethanolamine synthesis, was also noted.

wild-type mice = assay: Plasma and hepatic lipid analysis in wild-type mice; details: 7 d
Experimental: FIG. 10. Agonist T0901317-mediated increases in hepatic and plasma triglyceride levels and lipogenic mRNA requires LXRs. Analysis of the lipid content of livers and plasma from vehicle- and T0901317-created wild-type and LXRα/β-/- mice (n=5 for each of the four groups shown, treatment for 7 d). Pooled plasma (50 μL from each of five mice per group) was fractionated and lipids analyzed as described. Shown are the concentrations for (A) FPLC triglyceride, (B) FPLC phospholipid, and (C) hepatic triglyceride. (D) Northern blot analysis of hepatic SREEP-I, SREBP-2, SCD-1, FAS, and ACC mRNA levels.
C57BL/6 mice (Charles River Laboratories) were between 6 and 10 wk old and weighed ˜20-30 g at the initiation of treatment. Golden Syrian Hamsters (Harlan Sprague-Dawley) were between 12 and 16 wk old (80-150 g). Animals were fed regular chow diets containing ˜4% fat and 0.02% cholesterol (PMI Pi-colab 5053 Chow). LXRα and β−/− mice were reared at the University of Texas Southwestern (UTSW) Medical Center at Dallas in accordance with the Institutional Animal Care and Research Advisory Committee at the UTSW Medical Center. Mice at UTSW were maintained on a 12 h light/12 h dark cycle and fed ad libitum a cereal-based mouse chow diet (No. 7001, Harlan Teklad).
Plasma was prepared from euthanized mice using standard centrifugation techniques and analyzed for plasma total cholesterol, HDL cholesterol, and triglyceride concentrations using a Hitachi 704 Clinical Analyzer. FPLC of plasma lipoproteins was accomplished using 200 μL aliquots of pooled plasma (from three to five animals) and fractionated on Superose 6 columns (Pharmacia). Cholesterol, triglyceride, and phospholipid concentrations in the fractions were determined enzymatically with reagents from Boehringer, Sigma, and Wako, respectively. Hepatic lipids were extracted and analyzed for triglyceride essentially as described (Bucolo, G. and David, H., Clin. Chem. 19:476-482 (1973); Yokode et al., Science 250:1273-1275 (1990)).

LXRα/β−/− mice = assay: Plasma and hepatic lipid analysis in LXRα/β−/− mice
Experimental: (§1) FIG. 10. […] Pooled plasma (50 μL from each of five mice per group) was fractionated and lipids analyzed as described. Shown are the concentrations for (A) FPLC triglyceride, (B) FPLC phospholipid, and (C) hepatic triglyceride. (D) Northern blot analysis of hepatic SREEP-I, SREBP-2, SCD-1, FAS, and ACC mRNA levels.
C57BL/6 mice (Charles River Laboratories) were between 6 and 10 wk old and weighed ˜20-30 g at the initiation of treatment. Golden Syrian Hamsters (Harlan Sprague-Dawley) were between 12 and 16 wk old (80-150 g). […] LXRα and β−/− mice were reared at the University of Texas Southwestern (UTSW) Medical Center at Dallas in accordance with the Institutional Animal Care and Research Advisory Committee at the UTSW Medical Center.
FPLC of plasma lipoproteins was accomplished using 200 μL aliquots of pooled plasma (from three to five animals) and fractionated on Superose 6 columns (Pharmacia). Cholesterol, triglyceride, and phospholipid concentrations in the fractions were determined enzymatically with reagents from Boehringer, Sigma, and Wako, respectively.

[1] = tested on: LXRα/β−/− mice liver mRNA; assay: Northern blot analysis of hepatic mRNA in LXRα/β−/− mice
Experimental: as §1

O=S(=O)(c1ccccc1)N(CC(F)(F)F)c1ccc(C(O)(C(F)(F)F)C(F)(F)F)cc1 [T0901317, N-(2,2,2-trifluoro-ethyl)-N-[4-(2,2,2-trifluoro-1-hydroxy-1-trifluoromethyl-ethyl)-phenyl]-benzenesulfonamide]
SREBP-1 expression (GEM) (HepG2 cells and mice): twofold | fatty acid synthase expression (GEM) (HepG2 cells and mice): twofold | plasma VLDL-triglyceride (FPLC) (wild-type mice; wild type mice, fold increase): threefold | total plasma triglycerides (wild-type mice; wild-type mice): 225.7 ± 7 mg/dL | hepatic triglyceride (wild-type mice; wild-type mice, fold vs vehicle-treated controls): fivefold | total plasma triglyceride (LXRα/β−/− mice; LXRα/β−/− mice vs vehicle-treated LXRα/β−/−): scant increases | hepatic triglyceride levels (LXRα/β−/− mice; LXRα/β−/− mice, 7 d): no significant elevation | plasma VLDL-triglyceride (LXRα/β−/− mice; LXRα/β−/− mice, 7 d): relatively minute increase | regulation of the SREBP-1, SCD-1, FAS, or ACC gene [1]: lack of regulation
